From paper PMC3598705, “Evaluation of Toxicity and Biodegradability of Cholinium Amino Acids Ionic Liquids” (PLoS ONE, 2013)
Converted amounts (≈) assume the structure as drawn. Like-named read-outs stand apart in the source and are kept apart here.

Columns and labels:
S. aureus ATCC 29213 = experiment: Antimicrobial activity, tube dilution method; assay type: cell-based, Staphylococcus aureus; settings: four repeated experiments
Protocol: (§1) Antimicrobial activity was measured via the tube dilution method as described previously. Briefly, E. coli, S. aureus, S. enteritidis and L. monocytogenes were cultured in Mueller-Hinton broth for 24 h at 37 °C. A microorganism suspension of 10^6 cfu mL^−1 (cfu, colony forming units) was prepared from each culture. IL solutions (31.3–1500 mM) were prepared with sterilized Mueller-Hinton broth, and then were sterilized by filtration (0.45 µm pore-diameter membrane). The various permutations of microorganism suspension (50 µL) and IL solution (50 µL) were mixed in 96-well microtiter plate. Growth of the microorganisms was determined visually after incubation for 24 h at 37 °C. Controls were conducted under the same conditions: negative controls without microorganisms and positive controls without ILs. The lowest concentration at which there was no visible growth (turbidity) was taken as the minimal inhibitory concentration (MIC). Samples of 20 µL from each well were spread onto Mueller-Hinton agar medium with inactivates (0.3% lecithin, 3% polysorbate 80 and 0.1% L-cysteine) and incubated for 48 h at 37 °C. The lowest concentration of the IL that killed 99.9% or more of the test bacterium was taken as the minimum biocidal concentration (MBC).

[1] = system: S. enteritidis ATCC 14128; experiment: Antimicrobial activity, tube dilution method; assay type: cell-based, Salmonella enteritidis; settings: four repeated experiments; for MIC: 24 h at 37 °C; for MBC: kills 99.9% or more
Protocol: as §1

E. coli ATCC 8739 = experiment: Antimicrobial activity, tube dilution method; assay type: cell-based, Escherichia coli; settings: four repeated experiments
Protocol: as §1

[2] = target: T1, AChE type VI-S (from the electric eel) (Electrophorus electricus, UniProt O42275); experiment: AChE inhibition assay (colorimetric, DTNB reduction); assay type: biochemical; settings: DTNB 0.5 mM, AChE 0.05 U mL^−1, acetylthiocholine iodide 0.5 mM, 37 °C, phosphate buffer pH 8.0; mean ± SD; read-out: EC50±SD (toxicity toward AChE)
T1 construct: purchased Sigma–Aldrich, USA type VI-S (catalogue number not given)
Protocol: A colorimetric assay based on reduction of DTNB was used to measure AChE inhibition as described previously, [24], in the presence of a phosphate buffer system in order to eliminate the effects of pH changes on enzyme activity. Briefly, IL solutions were prepared with 0.2 M phosphate buffer (pH 8.0) in 96-well microtiter plates. The enzyme (0.2 U mL^−1, plus 0.25 mg mL^−1 bovine serum albumin in the same phosphate buffer), and DTNB (2 mM, plus 0.185 mg mL^−1 NaHCO3 in the same phosphate buffer) were added to each well and kept at 37 °C for 5 min, and then the reaction was initiated by adding acetylthiocholine iodide (2 mM in the same phosphate buffer). In the experimental reactions, the final concentrations of DTNB, acetylthiocholine iodide and AChE were 0.5 mM, 0.5 mM and 0.05 U mL^−1, respectively. Except where stated otherwise, the concentration range used to calculate EC50 of the [Ch][AA] ILs was 0–50 mM. However, for strongly alkaline [Ch][AA] ILs such as [Ch][Lys], the maximum concentration used was 20 mM in order to avoid changes in enzyme activity due to pH changes that would be caused if the IL exceeded the buffering capacity of the phosphate buffer. Acidic amino acid-derived ILs ([Ch][Asp] and [Ch][Glu]) were used up to 80 mM. The control compounds cholinium chloride ([Ch][Cl]), [Bmim][BF4] and acetone were used at concentration ranges of 0–80 mM, 0–50 mM and 10 mM–2.5 M, respectively. Control experiments without enzyme were carried out under otherwise identical conditions. Reduction of DTNB was monitored at 405 nm and at 10 second intervals in a microplate reader (Wallac 1420 VICTOR3, PerkinElmer, Singapore) over a period of 5 min. Enzyme activity was expressed as ΔOD min^−1 obtained via linear regression analysis. All assays were performed at least in triplicate.
All data were analyzed by One-Way analysis of variance using SPSS 11.5 (SPSS Inc., USA). EC50 values are presented as mean ± standard deviation (SD) from at least three repeats, and confidence intervals (α = 0.05) of EC50 are also presented. The One-Way ANOVA was used to judge if the difference between the different ILs groups was significant. When the p value was<0.05, the difference was considered to be significant.

[3] = system: L. monocytogenes ATCC 19115; experiment: Antimicrobial activity, tube dilution method; assay type: cell-based, Listeria monocytogenes; settings: four repeated experiments
Protocol: as §1

T1 sequence (O42275 24-633): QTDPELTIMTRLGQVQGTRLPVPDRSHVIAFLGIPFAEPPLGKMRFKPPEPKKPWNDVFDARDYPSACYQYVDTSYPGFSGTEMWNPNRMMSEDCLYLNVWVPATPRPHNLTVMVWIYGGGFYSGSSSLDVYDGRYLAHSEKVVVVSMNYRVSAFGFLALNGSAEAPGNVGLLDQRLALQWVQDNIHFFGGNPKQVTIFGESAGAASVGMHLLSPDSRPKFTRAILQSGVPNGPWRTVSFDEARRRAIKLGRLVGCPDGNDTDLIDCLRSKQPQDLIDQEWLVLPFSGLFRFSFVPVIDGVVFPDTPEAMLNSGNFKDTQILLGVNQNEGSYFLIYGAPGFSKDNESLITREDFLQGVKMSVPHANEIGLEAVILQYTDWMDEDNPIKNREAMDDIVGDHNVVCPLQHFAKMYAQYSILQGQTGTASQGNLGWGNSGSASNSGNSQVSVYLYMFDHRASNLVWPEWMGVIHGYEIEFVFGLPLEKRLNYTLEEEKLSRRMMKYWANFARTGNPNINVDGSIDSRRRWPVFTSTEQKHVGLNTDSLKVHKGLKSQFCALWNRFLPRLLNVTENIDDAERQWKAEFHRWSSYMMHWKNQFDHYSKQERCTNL

Compound	MIC (S. aureus ATCC 29213; 24 h at 37 °C)	MBC (S. aureus ATCC 29213; kills 99.9% or more)	MIC [1]	MIC (E. coli ATCC 8739; 24 h at 37 °C)	MBC (E. coli ATCC 8739; kills 99.9% or more)	EC50 [2]	MIC ([3]; 24 h at 37 °C)	MBC ([3]; kills 99.9% or more)	MBC [1]	other results
C[N+](C)(C)CCO.NCCCC[C@H](N)C(=O)[O-] [[Ch][Lys]]	62.5 mM	93.8 mM	31.3 mM	31.3 mM	46.9 mM	3.48 ± 0.13 mM	62.5 mM	93.8 mM	–	–
C[N+](C)(C)CCO.N[C@@H](CCC(=O)O)C(=O)[O-] [[Ch][Glu]]	750 mM	750 mM	125 mM	500 mM	750 mM	3.72 ± 0.07 mM	500 mM	750 mM	188 mM	–
N[C@@H](Cc1cnc[nH]1)C(=O)O [[Ch][His]]	–	–	–	–	–	3.63 ± 0.04 mM	–	–	–	–
C[N+](C)(C)CCO.NC(=O)CC[C@H](N)C(=O)[O-] [[Ch][Gln]]	125 mM	188 mM	93.8 mM	125 mM	188 mM	–	188 mM	250 mM	125 mM	–
C[N+](C)(C)CCO.N[C@@H](CO)C(=O)[O-] [[Ch][Ser]]	125 mM	250 mM	46.9 mM	31.3 mM	62.5 mM	–	93.8 mM	125 mM	62.5 mM	–
CC(C)[C@H](N)C(=O)O [[Ch][Val]]	93.8 mM (≈ 11000 µg/mL)	125 mM (≈ 14600 µg/mL)	46.9 mM (≈ 5490 µg/mL)	46.9 mM (≈ 5490 µg/mL)	62.5 mM (≈ 7320 µg/mL)	3.06 ± 0.12 mM	93.8 mM (≈ 11000 µg/mL)	125 mM (≈ 14600 µg/mL)	62.5 mM (≈ 7320 µg/mL)	–
O=C(O)[C@@H]1CCCN1 [[Ch][Pro]]	–	–	–	–	–	3.37 ± 0.16 mM	–	–	–	–
C[C@@H](O)[C@H](N)C(=O)O [[Ch][Thr]]	–	–	–	–	–	3.45 ± 0.15 mM	–	–	–	–
C[C@H](N)C(=O)[O-].C[N+](C)(C)CCO [[Ch][Ala]]	188 mM	250 mM	62.5 mM	46.9 mM	93.8 mM	–	188 mM	250 mM	93.8 mM	–
NCC(=O)O [[Ch][Gly]]	–	–	–	–	–	3.83 ± 0.17 mM	–	–	–	–
NC(=O)C[C@H](N)C(=O)O [[Ch][Asn]]	–	–	–	–	–	3.94 ± 0.05 mM	–	–	–	–
C[C@@H](O)[C@H](N)C(=O)[O-].C[N+](C)(C)CCO [[Ch][Thr]]	125 mM	250 mM	46.9 mM	31.3 mM	62.5 mM	–	93.8 mM	125 mM	62.5 mM	–
C[C@H](N)C(=O)O [[Ch][Ala]]	–	–	–	–	–	3.33 ± 0.1 mM	–	–	–	–
CCC(C)C(N)C(=O)[O-].C[N+](C)(C)CCO (stereo not shown) [[Ch][Ile]]	93.8 mM	125 mM	46.9 mM	46.9 mM	62.5 mM	3.57 ± 0.07 mM	46.9 mM	62.5 mM	62.5 mM	–
CSCC[C@H](N)C(=O)[O-].C[N+](C)(C)CCO [[Ch][Met]]	125 mM	250 mM	31.3 mM	31.3 mM	62.5 mM	–	125 mM	250 mM	62.5 mM	–
C[N+](C)(C)CCO.O=C([O-])[C@@H]1CCCN1 [[Ch][Pro]]	93.8 mM	125 mM	46.9 mM	46.9 mM	62.5 mM	–	62.5 mM	93.8 mM	62.5 mM	–
NC(=O)CC[C@H](N)C(=O)O [[Ch][Gln]]	–	–	–	–	–	3.51 ± 0.16 mM	–	–	–	–
C[N+](C)(C)CCO.N[C@@H](Cc1c[nH]c2ccccc12)C(=O)[O-] [[Ch][Trp]]	46.9 mM	62.5 mM	23.4 mM	23.4 mM	31.3 mM	2.45 ± 0.02 mM	31.3 mM	46.9 mM	31.3 mM	–
C[N+](C)(C)CCO.N[C@@H](Cc1cnc[nH]1)C(=O)[O-] [[Ch][His]]	93.8 mM	125 mM	46.9 mM	46.9 mM	62.5 mM	–	93.8 mM	125 mM	62.5 mM	–
CSCC[C@H](N)C(=O)O [[Ch][Met]]	–	–	–	–	–	3.13 ± 0.14 mM	–	–	–	–
CC(C)C[C@H](N)C(=O)[O-].C[N+](C)(C)CCO [[Ch][Leu]]	93.8 mM	125 mM	46.9 mM	46.9 mM	62.5 mM	3.36 ± 0.05 mM	46.9 mM	62.5 mM	62.5 mM	–
C[N+](C)(C)CCO.N[C@@H](Cc1ccccc1)C(=O)[O-] [[Ch][Phe]]	62.5 mM	93.8 mM	31.3 mM	31.3 mM	46.9 mM	2.74 ± 0.1 mM	46.9 mM	62.5 mM	46.9 mM	–
CC(=O)[O-].C[N+](C)(C)CCO [[Ch][AcO], Cholinium acetate, reference compound]	500 mM	750 mM	750 mM	500 mM	750 mM	–	500 mM	750 mM	750 mM	–
CCCCn1cc[n+](C)c1 [[Bmim][BF4], 1-Butyl-3-methylimidazolium tetrafluoroborate, reference compound]	–	–	–	–	–	0.33 ± 0.01 mM	–	–	–	MIC (S. aureus ATCC 29213; Staphylococcus aureus, ATCC29213, 24 h at 37 °C, read-out: MIC): 2.3 mM; MBC (S. aureus ATCC 29213; Staphylococcus aureus, ATCC29213, kills 99.9% or more, read-out: MBC): 4.6 mM; MIC ([1]; Salmonella enterica, read-out: MIC): 2.3 mM; MBC ([1]; Salmonella enterica, read-out: MBC): 2.3 mM; MIC (E. coli ATCC 8739; Escherichia coli, ATCC8739, 24 h at 37 °C, read-out: MIC): 2.3 mM; MBC (E. coli ATCC 8739; Escherichia coli, ATCC8739, kills 99.9% or more, read-out: MBC): 4.6 mM; MIC ([3]; Listeria monocytogenes, ATCC19115, 24 h at 37 °C, read-out: MIC): 2.3 mM; MBC ([3]; Listeria monocytogenes, ATCC19115, kills 99.9% or more, read-out: MBC): 4.6 mM
N[C@@H](CO)C(=O)O [[Ch][Ser]]	–	–	–	–	–	3.56 ± 0.15 mM	–	–	–	–
C[N+](C)(C)CCO.NCC(=O)[O-] [[Ch][Gly]]	250 mM	500 mM	93.8 mM	125 mM	250 mM	–	250 mM	500 mM	125 mM	–
C[N+](C)(C)CCO.NC(=O)C[C@H](N)C(=O)[O-] [[Ch][Asn]]	188 mM	250 mM	93.8 mM	93.8 mM	125 mM	–	250 mM	250 mM	125 mM	–
